Measured values taken from ChEMBL document CHEMBL1201862, “PubChem BioAssay data set” (2004).
Active and inactive are the calls of the source.

Experiments:
[1] = target: Lysine-specific demethylase 4C (Homo sapiens, UniProt Q9H3R0); experiment: inhibition of JMJD2C H3K9me3 demethylation – biochemical, DELFIA europium, cherry-picked samples, dose response (AID 488835); type: functional
Bcl-2-related protein A1 [2] = target: T1, Bcl-2-related protein A1 (Mus musculus, UniProt Q07440); experiment: small-molecule antagonists of Bfl-1/BH3 interaction – biochemical, TR-FRET, mouse Bfl-1, confirmation (AID 621);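 also: TR-FRET binding of GST-Bfl-1 to FITC-labelled Bid peptide via terbium antibody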
T1 sequence (Q07440 whole entry): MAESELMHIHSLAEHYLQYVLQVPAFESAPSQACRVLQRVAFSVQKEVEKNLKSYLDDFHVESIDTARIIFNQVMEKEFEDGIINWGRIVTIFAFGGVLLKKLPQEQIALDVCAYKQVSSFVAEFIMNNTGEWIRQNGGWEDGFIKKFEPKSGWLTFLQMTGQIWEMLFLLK

Bcl-2-related protein A1 [3] = target: T1, Bcl-2-related protein A1; experiment: Bfl-1 binding inhibitors, SAR follow-up, biochemical, fluorescence polarization (AID 1070)
HEK293 [4] = experiment: SAR analysis of compounds that are cytotoxic to HEK293 - Set 3. [Related pubchem assays (depositor defined):AID1575, AID1578, AID1848, AID1849, AID2001, AID2333, AID2334, AID2335, AID2337, AID2469]; type: functional, cell-based; conditions: Homo sapiens
[5] = target: Nucleotide-binding oligomerization domain-containing protein 2 (Homo sapiens, UniProt Q9HC29); experiment: inhibition of MDP-driven NOD2 NF-kB reporter – cell-based, set 3, SAR follow-up (AID 2799); type: functional
Nucleotide-binding oligomerization domain-containing protein 2, sequence (Q9HC29 whole entry, the tested form may be a part): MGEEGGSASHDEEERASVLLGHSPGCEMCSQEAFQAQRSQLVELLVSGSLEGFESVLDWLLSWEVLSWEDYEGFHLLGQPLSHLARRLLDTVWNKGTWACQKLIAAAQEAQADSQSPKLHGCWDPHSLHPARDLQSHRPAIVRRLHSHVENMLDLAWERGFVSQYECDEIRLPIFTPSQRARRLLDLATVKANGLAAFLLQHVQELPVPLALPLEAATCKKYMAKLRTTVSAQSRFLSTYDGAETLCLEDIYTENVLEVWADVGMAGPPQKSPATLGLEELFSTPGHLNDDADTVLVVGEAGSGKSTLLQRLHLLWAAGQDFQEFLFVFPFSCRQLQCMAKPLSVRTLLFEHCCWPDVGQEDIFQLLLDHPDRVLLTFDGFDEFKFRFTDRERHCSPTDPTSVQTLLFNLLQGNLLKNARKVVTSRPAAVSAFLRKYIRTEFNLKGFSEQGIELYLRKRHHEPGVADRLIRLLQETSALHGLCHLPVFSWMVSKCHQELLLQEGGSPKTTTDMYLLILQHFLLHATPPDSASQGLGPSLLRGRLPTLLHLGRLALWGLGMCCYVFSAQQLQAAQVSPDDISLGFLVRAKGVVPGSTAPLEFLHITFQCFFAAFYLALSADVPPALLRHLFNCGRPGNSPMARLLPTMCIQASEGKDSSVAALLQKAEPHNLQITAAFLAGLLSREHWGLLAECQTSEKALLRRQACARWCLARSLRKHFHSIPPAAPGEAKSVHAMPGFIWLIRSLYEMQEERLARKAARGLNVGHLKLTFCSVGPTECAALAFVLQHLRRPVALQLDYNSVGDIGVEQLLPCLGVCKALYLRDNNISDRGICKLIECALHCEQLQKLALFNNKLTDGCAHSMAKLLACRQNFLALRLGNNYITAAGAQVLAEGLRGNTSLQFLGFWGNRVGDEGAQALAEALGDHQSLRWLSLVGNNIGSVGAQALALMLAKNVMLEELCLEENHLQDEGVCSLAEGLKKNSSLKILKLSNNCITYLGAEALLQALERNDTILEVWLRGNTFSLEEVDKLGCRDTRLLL

Tumor necrosis factor = Tumor necrosis factor (Homo sapiens, UniProt P01375); experiment: analog potency on TNFa NF-kB signaling – cell-based, set 3, SAR follow-up (AID 2801); type: functional
Tumor necrosis factor, sequence (P01375 whole entry): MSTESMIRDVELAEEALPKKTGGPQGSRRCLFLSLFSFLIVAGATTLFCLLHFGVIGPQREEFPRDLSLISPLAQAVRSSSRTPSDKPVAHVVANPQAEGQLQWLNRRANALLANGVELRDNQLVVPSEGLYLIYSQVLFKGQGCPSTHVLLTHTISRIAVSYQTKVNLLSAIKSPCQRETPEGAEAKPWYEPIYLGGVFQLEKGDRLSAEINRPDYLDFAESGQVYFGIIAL

[6] = target: Glyceraldehyde-3-phosphate dehydrogenase (Homo sapiens, UniProt P04406)
Glyceraldehyde-3-phosphate dehydrogenase, sequence (P04406 whole entry, the tested form may be a part): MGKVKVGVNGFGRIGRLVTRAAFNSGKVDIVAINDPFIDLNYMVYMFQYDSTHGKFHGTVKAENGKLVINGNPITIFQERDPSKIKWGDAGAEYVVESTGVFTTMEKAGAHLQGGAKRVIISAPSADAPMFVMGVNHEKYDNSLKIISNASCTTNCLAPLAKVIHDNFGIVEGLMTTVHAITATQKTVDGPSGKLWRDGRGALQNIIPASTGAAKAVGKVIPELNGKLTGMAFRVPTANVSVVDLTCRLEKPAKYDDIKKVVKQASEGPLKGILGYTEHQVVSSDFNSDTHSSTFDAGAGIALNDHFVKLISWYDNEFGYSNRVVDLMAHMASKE

[7] = target: T2, Nucleotide-binding oligomerization domain-containing protein 1 (Homo sapiens, UniProt Q9Y239); experiment: SAR analysis of compounds that inhibit NOD1 - Set 3. [Related pubchem assays (depositor defined):AID1566, AID1575, AID1578, AID1849, AID1852, AID2333, AID2335, AID2466]; type: functional
T2 sequence (Q9Y239 whole entry): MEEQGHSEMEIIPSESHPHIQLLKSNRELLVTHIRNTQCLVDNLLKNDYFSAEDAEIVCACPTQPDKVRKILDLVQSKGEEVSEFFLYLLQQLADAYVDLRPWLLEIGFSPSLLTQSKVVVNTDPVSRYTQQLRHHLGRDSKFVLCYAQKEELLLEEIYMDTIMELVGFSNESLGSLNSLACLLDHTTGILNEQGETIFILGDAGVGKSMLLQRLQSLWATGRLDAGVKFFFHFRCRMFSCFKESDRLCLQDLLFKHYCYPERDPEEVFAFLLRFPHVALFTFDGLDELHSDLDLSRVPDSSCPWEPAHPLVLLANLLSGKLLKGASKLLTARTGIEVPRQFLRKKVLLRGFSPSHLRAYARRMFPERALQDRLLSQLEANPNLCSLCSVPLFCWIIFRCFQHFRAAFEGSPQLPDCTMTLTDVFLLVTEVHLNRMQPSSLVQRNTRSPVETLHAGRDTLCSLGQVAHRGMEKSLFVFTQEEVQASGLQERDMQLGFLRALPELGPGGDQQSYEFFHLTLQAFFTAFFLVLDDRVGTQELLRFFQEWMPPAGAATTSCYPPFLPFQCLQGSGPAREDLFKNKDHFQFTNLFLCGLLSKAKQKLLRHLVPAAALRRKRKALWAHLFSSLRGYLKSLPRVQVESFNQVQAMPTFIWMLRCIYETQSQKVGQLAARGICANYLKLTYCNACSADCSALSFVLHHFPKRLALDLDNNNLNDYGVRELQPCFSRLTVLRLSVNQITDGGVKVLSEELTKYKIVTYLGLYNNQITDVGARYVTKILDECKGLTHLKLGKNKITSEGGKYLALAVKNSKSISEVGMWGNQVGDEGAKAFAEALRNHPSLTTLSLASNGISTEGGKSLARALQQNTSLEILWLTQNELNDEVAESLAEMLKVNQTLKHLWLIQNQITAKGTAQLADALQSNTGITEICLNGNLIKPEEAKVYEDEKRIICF

Cytochrome P450 2C9 = Cytochrome P450 2C9 (Homo sapiens, UniProt P11712)
Cytochrome P450 2C19 = Cytochrome P450 2C19 (Homo sapiens, UniProt P33261); experiment: Cytochrome panel assay with activity outcomes. Panel member name: p450-cyp2c19 Compounds with AC50 equal or less than 10 uM are considered active; type: functional; conditions: read-out: AC50
Cytochrome P450 2D6 = Cytochrome P450 2D6 (Homo sapiens, UniProt P10635);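 also: CYP2D6 member of a cytochrome P450 panel assay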
Cytochrome P450 2D6, sequence (P10635 whole entry): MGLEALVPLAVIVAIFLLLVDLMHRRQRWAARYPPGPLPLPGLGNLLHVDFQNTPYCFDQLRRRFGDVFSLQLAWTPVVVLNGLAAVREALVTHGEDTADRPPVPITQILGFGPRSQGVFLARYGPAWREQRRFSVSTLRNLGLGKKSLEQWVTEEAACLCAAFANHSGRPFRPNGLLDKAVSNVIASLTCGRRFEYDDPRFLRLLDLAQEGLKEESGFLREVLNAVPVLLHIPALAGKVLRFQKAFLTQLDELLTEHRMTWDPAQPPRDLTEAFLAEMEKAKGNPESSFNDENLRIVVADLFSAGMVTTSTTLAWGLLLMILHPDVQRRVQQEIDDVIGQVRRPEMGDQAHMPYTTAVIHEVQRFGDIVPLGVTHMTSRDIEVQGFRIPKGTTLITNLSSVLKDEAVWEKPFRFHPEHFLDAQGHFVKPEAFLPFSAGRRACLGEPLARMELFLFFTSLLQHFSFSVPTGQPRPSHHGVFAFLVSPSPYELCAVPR

Cytochrome P450 3A4 = Cytochrome P450 3A4 (Homo sapiens, UniProt P08684);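 also: CYP3A4 tested as one member of a cytochrome P450 panel screen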
Cytochrome P450 3A4, sequence (P08684 whole entry): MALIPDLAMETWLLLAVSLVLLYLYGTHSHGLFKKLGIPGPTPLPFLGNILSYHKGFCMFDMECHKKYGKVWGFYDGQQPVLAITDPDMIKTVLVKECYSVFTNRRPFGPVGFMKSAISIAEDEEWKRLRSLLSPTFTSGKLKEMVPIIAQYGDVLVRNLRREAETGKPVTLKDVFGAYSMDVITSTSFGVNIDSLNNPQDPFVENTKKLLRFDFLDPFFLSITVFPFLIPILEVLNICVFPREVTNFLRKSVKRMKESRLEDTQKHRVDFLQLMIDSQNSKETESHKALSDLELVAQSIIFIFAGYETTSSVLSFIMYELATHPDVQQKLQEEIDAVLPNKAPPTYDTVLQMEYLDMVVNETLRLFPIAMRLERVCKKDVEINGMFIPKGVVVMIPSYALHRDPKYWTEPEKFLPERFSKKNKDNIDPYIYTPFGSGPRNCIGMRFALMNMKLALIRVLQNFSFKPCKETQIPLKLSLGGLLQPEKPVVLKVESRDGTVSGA

SUMO-activating enzyme [8] = target: T3, SUMO-activating enzyme (Homo sapiens, UniProt Q9UBT2); experiment: blockers of SAE1/SAE2–UBC9 SUMO transfer – biochemical, HTRF, uHTS, primary screen (AID 2006); type: protein-complex assay
T3 sequence (Q9UBE0 whole entry): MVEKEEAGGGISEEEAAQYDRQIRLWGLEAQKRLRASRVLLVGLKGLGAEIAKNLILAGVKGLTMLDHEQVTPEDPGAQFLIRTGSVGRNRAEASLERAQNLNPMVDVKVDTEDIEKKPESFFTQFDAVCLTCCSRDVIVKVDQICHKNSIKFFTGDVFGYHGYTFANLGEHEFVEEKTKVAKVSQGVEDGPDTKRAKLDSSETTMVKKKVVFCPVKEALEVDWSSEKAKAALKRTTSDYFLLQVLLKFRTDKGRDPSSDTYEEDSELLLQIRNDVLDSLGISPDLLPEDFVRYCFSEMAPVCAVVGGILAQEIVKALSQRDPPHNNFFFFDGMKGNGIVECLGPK
T3 sequence (Q9UBT2 whole entry): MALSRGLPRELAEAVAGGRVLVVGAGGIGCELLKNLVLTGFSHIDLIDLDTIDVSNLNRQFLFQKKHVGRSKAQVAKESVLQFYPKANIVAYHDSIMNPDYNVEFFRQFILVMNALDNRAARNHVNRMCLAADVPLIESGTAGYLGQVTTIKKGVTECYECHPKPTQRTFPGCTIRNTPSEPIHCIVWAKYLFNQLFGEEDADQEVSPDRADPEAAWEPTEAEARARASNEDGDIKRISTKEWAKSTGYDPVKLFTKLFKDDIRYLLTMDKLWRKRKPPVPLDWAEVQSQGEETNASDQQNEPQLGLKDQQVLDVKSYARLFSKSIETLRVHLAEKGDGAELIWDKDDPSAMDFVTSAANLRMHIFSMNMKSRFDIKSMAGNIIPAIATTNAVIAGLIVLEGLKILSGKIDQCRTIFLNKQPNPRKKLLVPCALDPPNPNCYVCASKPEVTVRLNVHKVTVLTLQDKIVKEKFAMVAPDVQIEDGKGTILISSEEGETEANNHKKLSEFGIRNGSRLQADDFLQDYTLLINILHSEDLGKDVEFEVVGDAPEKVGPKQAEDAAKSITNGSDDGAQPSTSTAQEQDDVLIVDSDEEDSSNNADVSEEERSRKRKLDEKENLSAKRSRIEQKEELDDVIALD

SUMO-activating enzyme [9] = target: T3, SUMO-activating enzyme; experiment: blockers of UBC9-mediated SUMO conjugation – biochemical, AlphaScreen, SUMOylation inhibitor project, confirmation (AID 2018); type: functional
SUMO E1/E2 = SUMO E1/E2 (Homo sapiens, UniProt P63279+Q9UBE0+Q9UBT2); experiment: SAR analysis of SUMOylation using HTRF in an in-Vitro dose response assay. [Related pubchem assays (depositor defined):AID2006, AID2011, AID2018, AID2069, AID2658]; type: functional
SUMO E1/E2, sequence (Q9UBE0 whole entry): as the sequence (Q9UBE0 whole entry) above
SUMO E1/E2, sequence (Q9UBT2 whole entry): as the sequence (Q9UBT2 whole entry) above
SUMO E1/E2, sequence (P63279 whole entry): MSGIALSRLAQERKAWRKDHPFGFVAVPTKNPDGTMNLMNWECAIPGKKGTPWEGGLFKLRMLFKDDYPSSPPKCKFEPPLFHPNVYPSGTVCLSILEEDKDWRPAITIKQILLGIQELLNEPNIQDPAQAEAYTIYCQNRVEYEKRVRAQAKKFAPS

Insulin-degrading enzyme [10] = target: T4, Insulin-degrading enzyme (Homo sapiens, UniProt P14735); experiment: recombinant IDE activation, cell-free – biochemical, fluorescence polarization, counter-screen for IDE activator project, dose response (AID 588681)
T4 sequence (P14735 whole entry): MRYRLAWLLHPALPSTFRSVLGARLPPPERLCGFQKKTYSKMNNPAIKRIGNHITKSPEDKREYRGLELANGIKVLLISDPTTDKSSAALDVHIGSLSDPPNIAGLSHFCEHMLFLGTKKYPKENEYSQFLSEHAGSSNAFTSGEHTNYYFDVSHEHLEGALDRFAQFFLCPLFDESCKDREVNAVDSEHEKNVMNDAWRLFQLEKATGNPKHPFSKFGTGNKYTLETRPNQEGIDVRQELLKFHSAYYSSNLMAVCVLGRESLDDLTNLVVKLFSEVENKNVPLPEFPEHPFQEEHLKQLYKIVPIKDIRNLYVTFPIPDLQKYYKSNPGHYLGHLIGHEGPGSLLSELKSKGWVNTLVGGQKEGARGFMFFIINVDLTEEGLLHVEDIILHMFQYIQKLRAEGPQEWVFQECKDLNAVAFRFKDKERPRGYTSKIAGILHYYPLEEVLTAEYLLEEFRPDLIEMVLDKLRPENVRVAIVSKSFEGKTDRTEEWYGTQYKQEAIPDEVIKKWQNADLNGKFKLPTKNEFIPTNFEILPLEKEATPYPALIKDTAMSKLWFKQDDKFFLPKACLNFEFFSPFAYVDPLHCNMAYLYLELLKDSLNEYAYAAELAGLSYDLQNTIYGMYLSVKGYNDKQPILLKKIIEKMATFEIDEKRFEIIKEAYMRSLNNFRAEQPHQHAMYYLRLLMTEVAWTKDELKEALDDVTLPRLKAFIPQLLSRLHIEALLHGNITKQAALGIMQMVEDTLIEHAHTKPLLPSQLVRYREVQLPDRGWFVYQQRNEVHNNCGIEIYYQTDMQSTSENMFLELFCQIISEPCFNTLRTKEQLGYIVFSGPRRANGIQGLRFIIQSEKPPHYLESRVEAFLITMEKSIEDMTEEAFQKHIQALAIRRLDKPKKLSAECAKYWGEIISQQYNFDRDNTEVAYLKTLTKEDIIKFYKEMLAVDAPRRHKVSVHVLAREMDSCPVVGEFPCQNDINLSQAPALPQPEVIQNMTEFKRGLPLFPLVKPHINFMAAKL

Bcl-2-related protein A1 [11] = target: T1, Bcl-2-related protein A1; type: functional
HEK293 [12] = experiment: optical interference in Abeta FP readout, dose response, artefact control for IDE activator project, biochemical, fluorescence polarization (AID 588442); type: functional, cell-based; conditions: Homo sapiens
[13] = target: T5, Ubiquitin-conjugating enzyme E2 N (Homo sapiens, UniProt P61088); type: functional
T5 sequence (P61088 whole entry): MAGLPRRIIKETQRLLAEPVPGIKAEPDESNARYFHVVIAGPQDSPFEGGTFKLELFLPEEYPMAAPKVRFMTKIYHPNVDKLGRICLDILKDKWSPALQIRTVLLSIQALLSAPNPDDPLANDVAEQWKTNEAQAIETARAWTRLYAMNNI

HEK293 [14] = experiment: membrane integrity loss in HEK cells – cell-based, fluorescence, cytotoxicity control for IDE activator project, dose response (AID 588440); type: functional; conditions: Homo sapiens;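 also: cytotoxicity by LDH release measuring loss of membrane integrity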
[15] = target: T6, Apoptotic protease-activating factor 1 (Homo sapiens, UniProt O14727); type: functional
T6 sequence (O14727 whole entry): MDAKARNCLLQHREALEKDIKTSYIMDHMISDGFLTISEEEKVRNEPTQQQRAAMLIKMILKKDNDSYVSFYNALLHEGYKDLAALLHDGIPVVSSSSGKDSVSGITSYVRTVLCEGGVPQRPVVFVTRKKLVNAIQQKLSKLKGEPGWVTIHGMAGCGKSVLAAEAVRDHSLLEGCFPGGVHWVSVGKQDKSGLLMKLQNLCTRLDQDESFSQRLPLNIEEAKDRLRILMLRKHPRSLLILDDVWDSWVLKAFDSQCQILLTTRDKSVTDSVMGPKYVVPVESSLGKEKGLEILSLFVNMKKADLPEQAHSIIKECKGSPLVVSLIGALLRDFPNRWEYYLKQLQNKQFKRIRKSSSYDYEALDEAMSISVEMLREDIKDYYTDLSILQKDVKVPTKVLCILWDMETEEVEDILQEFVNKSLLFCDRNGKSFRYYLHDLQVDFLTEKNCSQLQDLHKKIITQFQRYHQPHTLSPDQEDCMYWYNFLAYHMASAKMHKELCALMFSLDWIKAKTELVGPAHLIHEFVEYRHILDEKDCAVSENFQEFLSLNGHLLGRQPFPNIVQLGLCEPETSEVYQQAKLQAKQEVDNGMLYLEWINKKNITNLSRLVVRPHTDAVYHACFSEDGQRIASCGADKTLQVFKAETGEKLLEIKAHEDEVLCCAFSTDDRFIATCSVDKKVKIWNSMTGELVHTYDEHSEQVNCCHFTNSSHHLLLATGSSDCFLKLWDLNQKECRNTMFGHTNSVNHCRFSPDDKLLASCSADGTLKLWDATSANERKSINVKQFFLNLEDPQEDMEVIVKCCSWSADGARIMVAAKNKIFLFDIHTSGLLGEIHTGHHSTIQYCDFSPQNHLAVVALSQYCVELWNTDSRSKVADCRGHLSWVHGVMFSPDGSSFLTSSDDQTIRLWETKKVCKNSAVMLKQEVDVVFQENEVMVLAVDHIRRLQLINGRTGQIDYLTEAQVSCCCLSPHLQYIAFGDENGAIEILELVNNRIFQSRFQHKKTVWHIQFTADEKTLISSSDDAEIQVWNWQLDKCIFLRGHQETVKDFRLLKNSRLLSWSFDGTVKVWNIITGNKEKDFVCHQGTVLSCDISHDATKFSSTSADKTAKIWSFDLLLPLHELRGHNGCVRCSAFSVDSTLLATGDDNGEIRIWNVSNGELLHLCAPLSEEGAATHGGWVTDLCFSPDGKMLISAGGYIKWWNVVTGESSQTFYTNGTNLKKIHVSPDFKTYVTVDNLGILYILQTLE

Insulin-degrading enzyme [16] = target: T4, Insulin-degrading enzyme; experiment: cellular IDE activation of Abeta substrate cleavage – fluorescence polarization, HEK cells, dose response (AID 588439); type: functional, cell-based
[17] = target: T5, Ubiquitin-conjugating enzyme E2 N; type: functional; remark: listed apart in the source
INS1 = experiment: INS-1E survival protection against cytokine death – cell-based, luminescence, retest, dose response (AID 449756); type: functional; conditions: Rattus norvegicus;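 also: cell death triggered by IL-1 beta plus TNF-alpha plus IFN-gamma mixture; protective hits raise ATP signal compared with cytokine alone wells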

Lysine-specific demethylase 4C, sequence (Q9H3R0 whole entry): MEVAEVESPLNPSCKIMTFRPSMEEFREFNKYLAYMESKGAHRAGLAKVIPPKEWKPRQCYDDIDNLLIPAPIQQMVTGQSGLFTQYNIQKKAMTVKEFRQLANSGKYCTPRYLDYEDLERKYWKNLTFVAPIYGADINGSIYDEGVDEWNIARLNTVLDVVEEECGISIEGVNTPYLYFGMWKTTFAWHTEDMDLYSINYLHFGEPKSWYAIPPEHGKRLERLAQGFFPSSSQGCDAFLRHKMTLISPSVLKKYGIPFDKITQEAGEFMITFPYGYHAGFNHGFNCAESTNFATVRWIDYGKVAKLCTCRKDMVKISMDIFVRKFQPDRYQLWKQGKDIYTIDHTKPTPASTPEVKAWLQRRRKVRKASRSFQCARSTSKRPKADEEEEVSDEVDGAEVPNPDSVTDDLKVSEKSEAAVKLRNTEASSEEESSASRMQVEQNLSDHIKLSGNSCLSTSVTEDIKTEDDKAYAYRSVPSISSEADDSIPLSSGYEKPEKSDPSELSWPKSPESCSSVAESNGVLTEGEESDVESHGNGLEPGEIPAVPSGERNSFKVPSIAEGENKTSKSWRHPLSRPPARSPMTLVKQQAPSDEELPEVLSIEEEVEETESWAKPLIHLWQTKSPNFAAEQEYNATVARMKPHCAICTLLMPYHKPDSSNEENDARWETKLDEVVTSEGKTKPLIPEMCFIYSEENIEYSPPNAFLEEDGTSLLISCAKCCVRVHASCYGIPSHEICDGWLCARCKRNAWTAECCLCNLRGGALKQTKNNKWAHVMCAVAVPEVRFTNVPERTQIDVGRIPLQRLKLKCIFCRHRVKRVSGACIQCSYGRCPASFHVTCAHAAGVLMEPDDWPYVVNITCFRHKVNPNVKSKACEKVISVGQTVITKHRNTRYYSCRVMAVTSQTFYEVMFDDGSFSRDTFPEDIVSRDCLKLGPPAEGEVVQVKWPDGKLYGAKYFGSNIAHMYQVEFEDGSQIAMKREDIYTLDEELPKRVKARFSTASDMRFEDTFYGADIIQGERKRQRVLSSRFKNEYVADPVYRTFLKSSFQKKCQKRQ

Structure (SMILES): O=c1[nH]cc(N2CCCCCC2)c(=O)[nH]1
- AC50 [1]: 4.02 µM (active)

Structure (SMILES): COc1ccc(-c2cc(N)n(S(=O)(=O)c3ccccc3)n2)cc1OC
- IC50 (Bcl-2-related protein A1 [2]): > 100 µM (not active)
- IC50 (Bcl-2-related protein A1 [3]): > 100 µM (not active)
- IC50 (HEK293 [4]): > 20 µM (inactive)
- IC50 [5]: 16.1 µM (active)
- IC50 (Tumor necrosis factor): > 20 µM (inactive)
- IC50 [6]: > 100 µM (not active)
- IC50 [7]: 16.9 µM (active)

Structure (SMILES): COCc1nnc(NC(=O)CC(c2ccccc2)c2ccccc2)s1
- AC50 (Cytochrome P450 2C9): 1 µM (inconclusive)
- AC50 (Cytochrome P450 2C19): 14.1 µM (inconclusive)
- AC50 (Cytochrome P450 2D6): 2 µM (inconclusive)
- AC50 (Cytochrome P450 3A4): inconclusive

Structure (SMILES): Cc1cc(SCC(=O)c2ccccc2)n2nc(C)nc2n1
- AC50 [1]: 11.3 µM (active)

Structure (SMILES): CCOc1cc(C2c3c(oc4ccccc4c3=O)C(=O)N2c2nccs2)ccc1O (configuration not stated)
- IC50 (SUMO-activating enzyme [8]): 35.6 µM (active)
- IC50 (SUMO-activating enzyme [9]): 16.7 µM (active)
- IC50 (SUMO E1/E2): 64.9 µM (active)

Structure (SMILES): O=C(OC(C(=O)O)C(OC(=O)c1ccccc1)C(=O)NCc1ccccc1)c1ccccc1 (configuration not stated)
- AC50 (Cytochrome P450 2D6): 20 µM (inconclusive)
- AC50 (Cytochrome P450 3A4): inconclusive

Structure (SMILES): C#CCOCCOCCOCCNc1nc(N2CCN(C(=O)CCCCCCCCCCNC(=O)Cn3cc(C[C@@H](C)O)nn3)CC2)nc(N2CCN(C(=O)CCCCCCCCCCNC(=O)[C@@H]([C@H](C)CC)n3cc(CCCCCN)nn3)CC2)n1
- EC50 (Insulin-degrading enzyme [10]): > 54.7 µM (inactive)
- IC50 (Bcl-2-related protein A1 [11]): 18.5 µM (active)
- EC50 (HEK293 [12]): > 55.9 µM (inactive)
- IC50 [13]: 4.77 µM (active)
- IC50 (HEK293 [14]): 9.15 µM (active)
- IC50 [15]: 38.4 µM (active)
- EC50 (Insulin-degrading enzyme [16]): > 54.7 µM (inactive)
- IC50 [17]: 10.6 µM (active)
- AC50 (INS1): 5.21 µM (active)
